Structures can show the parent of a compound that is named as a salt.
Key:
[1] = biological target: T1, activated human C1 (Homo sapiens, UniProt P09871); test: Test Code 026 (C1 inhibitor); type: biochemical; conditions: in vitro; twofold serial dilution assay, higher well number indicates higher activity
T1 sequence (P09871 438-688 limits assumed): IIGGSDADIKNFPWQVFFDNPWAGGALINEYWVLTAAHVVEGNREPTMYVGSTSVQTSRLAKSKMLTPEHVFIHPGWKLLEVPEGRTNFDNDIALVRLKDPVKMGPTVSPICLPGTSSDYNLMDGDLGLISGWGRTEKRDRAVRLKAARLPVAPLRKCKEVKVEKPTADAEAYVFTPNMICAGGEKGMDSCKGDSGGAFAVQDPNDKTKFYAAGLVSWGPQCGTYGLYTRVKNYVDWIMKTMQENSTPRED
T1 sequence (P09871 16-437 limits assumed): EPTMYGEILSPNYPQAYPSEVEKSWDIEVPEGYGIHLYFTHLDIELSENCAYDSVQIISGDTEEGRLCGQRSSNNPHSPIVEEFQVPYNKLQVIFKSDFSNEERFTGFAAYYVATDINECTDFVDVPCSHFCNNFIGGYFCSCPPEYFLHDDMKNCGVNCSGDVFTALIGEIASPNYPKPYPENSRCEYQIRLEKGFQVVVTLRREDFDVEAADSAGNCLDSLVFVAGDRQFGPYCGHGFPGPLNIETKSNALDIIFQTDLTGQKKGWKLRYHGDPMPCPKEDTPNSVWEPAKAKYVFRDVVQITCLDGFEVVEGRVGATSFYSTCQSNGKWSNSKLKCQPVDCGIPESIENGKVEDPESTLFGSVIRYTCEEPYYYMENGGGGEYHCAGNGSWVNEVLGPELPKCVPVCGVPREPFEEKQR
Source text: (§1) An active inhibitor protects C2 from C1 and C4; (ii) Test Code 035 (C3-C9 inhibitor)--This test determines the ability of the late components of human complement (C3-C9) to lyse EAC 142 in the presence of appropriate dilutions of the test compound. An active inhibitor protects EAC 142 from lysis by human C3-C9; (iii) Test Code 036 (C-Shunt inhibitor)--In this test human erythrocytes rendered fragile are lysed in autologous serum via the shunt pathway activated by cobra venom factor in the presence of appropriate dilutions of the test compound. Inhibition of the shunt pathway results in failure of lysis; (iv) Cap 50 Test-- Here, appropriate amounts of the test compound are added to a pool of guinea pig serum in vitro, after which the undiluted serum capillary tube assay of U.S. Pat. No. 3,876,376 is run. The concentration of compound inhibiting 50% is reported; and (v) Guinea Pig Intraperitoneal Test (GPIP)--Guinea Pigs weighing about 300 g are dosed intraperitoneally (i.p.) with 200 mg/kg of the test compound dissolved in saline and adjusted to pH 7-8. […] Percent inhibition is calculated by comparison with simultaneous controls. […]

[2] = test system: shunt pathway; test: Test Code 036 (C-Shunt inhibitor), lysis of fragile human erythrocytes in autologous serum, cobra venom factor; type: biochemical; conditions: in vitro; twofold serial dilution assay, higher well number indicates higher activity
Source text: as §1

[3] = test system: late components of human complement (C3-C9); test: Test Code 035 (C3-C9 inhibitor), lysis of EAC 142; type: biochemical; design: key: N = Negative; conditions: in vitro; twofold serial dilution assay
Source text: as §1

[4] = test system: human serum; conditions: both in vitro and in vivo, judged by reduction in total hemolytic complement activity; cited from earlier work
[5] = test system: hereditary angioneurotic edema; conditions: literature reports; cited from earlier work
[6] = test system: complement system; conditions: Br. J. Exp. Pathol. 33: 327 (1952); cited from earlier work
[7] = test system: complement activity; test: Guinea Pig Intraperitoneal Test (GPIP); type: in vivo, Guinea Pigs; conditions: 200 mg/kg i.p.
Source text: An active inhibitor protects C2 from C1 and C4; (ii) Test Code 035 (C3-C9 inhibitor)--This test determines the ability of the late components of human complement (C3-C9) to lyse EAC 142 in the presence of appropriate dilutions of the test compound. An active inhibitor protects EAC 142 from lysis by human C3-C9; (iii) Test Code 036 (C-Shunt inhibitor)--In this test human erythrocytes rendered fragile are lysed in autologous serum via the shunt pathway activated by cobra venom factor in the presence of appropriate dilutions of the test compound. Inhibition of the shunt pathway results in failure of lysis; (iv) Cap 50 Test-- Here, appropriate amounts of the test compound are added to a pool of guinea pig serum in vitro, after which the undiluted serum capillary tube assay of U.S. Pat. No. 3,876,376 is run. The concentration of compound inhibiting 50% is reported; and (v) Guinea Pig Intraperitoneal Test (GPIP)--Guinea Pigs weighing about 300 g are dosed intraperitoneally (i.p.) with 200 mg/kg of the test compound dissolved in saline and adjusted to pH 7-8. Approximately 0.4 ml blood samples, taken by orbital sinus puncture 30 minutes and one hour after injections, are collected directly into centrifuge tubes; 5 ml blood samples, taken by decapitation 2 hours after injection, are collected directly into diSPo® beakers. The samples are allowed to clot, centrifuged, and the resultant sera are assayed for complement activity using the capillary complement assay. Percent inhibition is calculated by comparison with simultaneous controls. The results of the GPIP appear in Table I together with results of Test Code 026, 035, 036 and Cap 50.

## O=S(=O)(O)OCC1OC(OCC2OC(COS(=O)(=O)O)(OC3OC(COC4OC(COC5OC(COS(=O)(=O)O)C(OS(=O)(=O)O)C(OS(=O)(=O)O)C5OS(=O)(=O)O)C(OS(=O)(=O)O)C(OS(=O)(=O)O)C4OS(=O)(=O)O)C(OS(=O)(=O)O)C(OS(=O)(=O)O)C3OS(=O)(=O)O)C(OS(=O)(=O)O)C2OS(=O)(=O)O)C(OS(=O)(=O)O)C(OS(=O)(=O)O)C1OC1OC(COS(=O)(=O)O)C(OC2OC(COS(=O)(=O)O)C(OS(=O)(=O)O)C(OS(=O)(=O)O)C2OS(=O)(=O)O)C(OS(=O)(=O)O)C1OS(=O)(=O)O [drawing 11, O-α-D-Galactopyranosyl(1→6)-O-α-D-galactopyranosyl(1→6)-O-α-D-glucopyranosyl(1→2)-O-β-D-fructofuranosyl(1→6)-O-α-D-glucopyranosyl(1→4)-O-α-D-glucopyranosyl-α-D-glucopyranoside, tricosakis (H-sulfate), tricosasalt with trimethylamine]
[1]
  Cl 026* Wells: +9 Wells
[2]
  C-Shunt Inhibition 036* Wells: +5 Wells
[3]
  C-Late 035* Wells: N

## pentosanpolysulfoester
[4]
  anticomplementary activity on human serum: anticomplementary activity

## NC[C@H]1CC[C@H](C(=O)O)CC1 [tranexamic acid]
[5]
  treatment of hereditary angioneurotic edema: used with success

## NCCCCCC(=O)O [epsilon-aminocaproic acid]
[5]
  treatment of hereditary angioneurotic edema: used with success

## Nc1ccc2cc(S(=O)(=O)[O-])cc(O)c2c1N=Nc1ccc(NC(=O)Nc2ccc(N=Nc3c(N)ccc4cc(S(=O)(=O)[O-])cc(O)c34)c(S(=O)(=O)[O-])c2)cc1S(=O)(=O)[O-].[Na+].[Na+].[Na+].[Na+] [chlorazol fast pink, 3,3'-ureylenebis[6-(2-amino-8-hydroxy-6-sulfo-1-naphthylazo)benzenesulfonic acid], tetrasodium salt]
[6]
  anti-complementary effect: anti-complementary effect

## O=S(=O)(O)OCC1OC(OCC2OC(COS(=O)(=O)O)(OC3OC(COC4OC(COC5OC(COS(=O)(=O)O)C(OS(=O)(=O)O)C(OS(=O)(=O)O)C5OS(=O)(=O)O)C(OS(=O)(=O)O)C(OS(=O)(=O)O)C4OS(=O)(=O)O)C(OS(=O)(=O)O)C(OS(=O)(=O)O)C3OS(=O)(=O)O)C(OS(=O)(=O)O)C2OS(=O)(=O)O)C(OS(=O)(=O)O)C(OS(=O)(=O)O)C1OC1OC(COS(=O)(=O)O)C(OC2OC(COS(=O)(=O)O)C(OS(=O)(=O)O)C(OS(=O)(=O)O)C2OS(=O)(=O)O)C(OS(=O)(=O)O)C1OS(=O)(=O)O [drawing 12, O-α-D-Galactopyranosyl(1→6)-O-α-D-galactopyranosyl(1.fwd arw.6)-O-α-D-glucopyranosyl(1→2)-O-β-D-fructofuranosyl(1→6)-O-α-D-glucopyranosyl(1→4)-O-α-D-glucopyranosyl-α-D-glucopyranoside, tricosakis (H-sulfate), tricosasodium salt]
[1]
  Cl 026* Wells: +9 Wells
[2]
  C-Shunt Inhibition 036* Wells: +5 Wells
[3]
  C-Late 035* Wells: N
[7]; serum 30 minutes after injection
  In vivo Activity (Guinea Pigs) % Inhibition Intraperitoneal, 30 minutes: 63%
[7]; serum 60 minutes after injection
  In vivo Activity (Guinea Pigs) % Inhibition Intraperitoneal, 60 minutes: 61%
[7]; serum 120 minutes after injection
  In vivo Activity (Guinea Pigs) % Inhibition Intraperitoneal, 120 minutes: 67%

## heparin
[6]
  anti-complementary effect: anti-complementary effect

From US4359459A, “O-α-D-Multigalactopyranosyl-O-α-D-multiglucopyranosyl-O-β- D” (American Cyanamid Company, priority 1981, dated 1982)
